One molecule from patent publication US20070004680A1, “Compositions and methods for modulating gated ion channels” (PainCeptor Pharma Corporation, priority 2004, published 2007) can be followed below.

For the assay, the target named is T1, ASIC1a (Homo sapiens, UniProt P78348).
T1 construct: host or cells: HEK293
T1 sequence (P78348 1-528): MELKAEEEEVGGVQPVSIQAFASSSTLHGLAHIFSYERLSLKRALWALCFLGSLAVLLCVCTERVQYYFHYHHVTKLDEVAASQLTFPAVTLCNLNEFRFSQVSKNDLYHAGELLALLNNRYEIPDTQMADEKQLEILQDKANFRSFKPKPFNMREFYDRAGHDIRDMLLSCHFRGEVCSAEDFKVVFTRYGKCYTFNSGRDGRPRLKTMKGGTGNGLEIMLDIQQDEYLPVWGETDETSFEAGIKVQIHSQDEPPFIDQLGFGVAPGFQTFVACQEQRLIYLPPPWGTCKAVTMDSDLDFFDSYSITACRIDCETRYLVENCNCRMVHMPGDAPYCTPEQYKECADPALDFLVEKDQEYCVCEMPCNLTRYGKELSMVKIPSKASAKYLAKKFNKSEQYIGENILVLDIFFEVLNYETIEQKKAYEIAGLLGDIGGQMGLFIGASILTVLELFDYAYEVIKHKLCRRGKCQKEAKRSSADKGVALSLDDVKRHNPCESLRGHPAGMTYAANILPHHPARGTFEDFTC
The assay can be described thus: FLIPR calcium assay (MES-induced calcium response), ASIC1a expressing HEK293 cells. The class given is cell-based. The note with it: HEK cells. Here is the method:
ASIC1a expressing HEK293 cells are grown in culture medium (DMEM with 10% FBS), in polystyrene culture flasks ([…]) at 37° C. in a humidified atmosphere of 5% CO2. Confluency of cells should be 80-90% on day of plating. Cells are rinsed with 10 ml of PBS and cells are re-suspended by addition of culture medium and trituration with a 25 ml pipette.
The cells are seeded at a density of approximately 1×10^6 cells/ml (100 μl/well) in black-walled, clear bottom, 96-well plates pre-treated with 10 mg/l poly-D-lysin (75 μl/well for ≧30 min). Plated cells were allowed to proliferate for 24 h before loading with dye.
Fluo-4/AM (1 mg, Molecular Probes) is added 912 μl DMSO. The Fluo-4/AM stock solution (1 mM) is diluted with culture medium to a final concentration of 2 μM.
The culture medium is aspirated from the wells, and 50 μl of the Fluo-4/AM loading solution is added to each well. The cells are incubated at 37° C. for 30 min.
After the loading period, the loading solution is aspirated and the cells are washed twice with 100 μl modified FLIPR medium (145 mM NaCl, 5 mM KCl, 5 mM CaCl2, 1 mM MgCl2, 10 mM HEPES, pH 7.4) to remove extracellular dye. Following the second wash, 100 μl modified FLIPR medium is added to each well and the fluorescence is measured in FLIPR.
Temperature: Room temperature (20-22° C.)
First addition: 50 μl test solution at a rate of 30 μl/sec and a starting height of […]
Second addition: 50 μl MES solution (20 mM, 5 mM final concentration) at a rate of 35 μl/sec and a starting height of 150 μl.
Reading intervals: pre-incubation—10 sec×7 and 3 sec×3 antagonist phase—3 sec×17 and 10 sec×12
Addition plates (compound test plate and MES plate) are placed on the right and left positions in the FLIPR tray, respectively. Cell plates are placed in the middle position and the ASIC1a program is effectuated. FLIPR will then take the appropriate measurements in accordance with the interval settings above. Fluorescence obtained after stimulation is corrected for the mean basal fluorescence (in modified FLIPR medium). […]

Take `C=CC1CN2CCC1CC2[C@@H](OC(=O)CCC1CCCC1)c1ccnc2ccccc12` (some centres unmarked) [Compound A]: the inhibition at 1 µM (HEK293, at 1 μM, FLIPR) lay within 30 to 45%. Moreover, the IC50 (MES-induced calcium response, peak values) is 1000 to 4000 nM.
